Tested on: dunaliella tertiolecta
Assay: growth inhibition test (72 h) using microalgae, ecotoxicity evaluation
Type: cell-based
Conditions: 20° C.
Description: The used microalgae 1 is dunaliella tertiolecta, and when exposed to stress (toxicity), transforms the state from the original form 51 into a cyst form 61 and loses mobility.
Acetone was used as a toxic substance. In a test method using an exponential formula, the temperature was maintained at 20° C., and the Irradiation was continuously performed using a white fluorescent lamp with an illuminance of 6,000 to 7,000 lx.
Three replicated plots were inoculated with an initial concentration of 20,000 cells/mL, and the shaking speed was set to 100 r/min. Non-toxic filtered seawater containing nutrient medium was used as a dilution water, and growth inhibition was analyzed for 72 hours.
The experimental conditions in examples of the ecotoxicity evaluation analysis device 100 installed with the microalgae image analysis program therein according to the present invention and the analysis method using the same are shown in Table 2.
Referring to FIG. 5, in an example of the microalgae analysis method using the ecotoxicity evaluation analysis device 100 installed with the microalgae image analysis program therein according to the present invention, the performance of the technology of the present invention was verified using representative SR chamber and hemocytometer of the microalgae analysis method as controls. Here, the concentration of the microalgae 1 contained in the sample was analyzed every 24 hours. Cells were dyed in the two controls, whereas measurements were performed without dyeing the cells in the present technology. In the controls, a microscope (200×) was used, and a microalgae 1 counting was performed manually by an experienced expert.
Referring to FIG. 6, a growth inhibition test using microalgae 1 is performed to obtain a 50% effective concentration (EC50) of a toxic substance. The 50% effective concentration is treated as an important data base for various toxicity analysis. […]

Structure (SMILES): CC(C)=O [acetone]
- 50% effective concentration (EC50) (counting by SR chamber (manual, microscope, dyed cells)): 25.6 mL/L
- 50% effective concentration (EC50) (counting by developed analyzer (present invention technology, CMOS shadow image, no dyeing)): 24.2 mL/L
- 50% effective concentration (EC50) (counting by hemocytometer (manual, microscope, dyed cells)): 24.9 mL/L

From US11526981B2, “Ecotoxicity evaluation analyzing device including microalgae image analysis program installed therein, and method thereof” (KOREA INSTITUTE OF OCEAN SCIENCE & TECHNOLOGY, priority 2017, dated 2022)
